In brackets after ≈: the same amount, converted by molar mass.
Details: buffer; pH 7.4; 200.0 µM

solubility kinetic [µg/mL]	Compound
19.6 (≈ 68.2 µM)	Cc1ccccc1OC(C)C(=O)NCCC1=CCCCC1 (stereo not given)
> 67.6	Cc1ccc(C)c(NC(=O)C(c2ccccc2)N2CCN(CC(=O)N3CCOCC3)CC2)c1 (stereo not given)
> 34.2	O=C(NCc1ccccc1)c1ccc[n+]([O-])c1
2.3 (≈ 8.74 µM)	O=C1C(=O)N(C/C=C/c2ccccc2)c2ccccc21
> 51.8	Cc1cc(=O)n2c(n1)NC(=NCc1ccccc1)NC2c1ccccc1 (stereo not given)
0.7 (≈ 2.37 µM)	NC(=O)CSc1nc(-c2ccccc2)nc2ccccc12
> 49.1	Cc1ccc(C(=O)NCN2CCN(c3ccc(F)cc3)CC2)cc1
2.1 (≈ 5.81 µM)	O=C(COC(=O)/C=C/c1cccc([N+](=O)[O-])c1)Nc1cccnc1Cl
1 (≈ 4.23 µM)	Cc1ccc(-c2nc3ccccc3[nH]c2=O)cc1
> 44.4	O=[N+]([O-])c1ccc(NCCN2CCOCC2)c([N+](=O)[O-])c1
45.1 (≈ 114 µM)	CSc1ccccc1NC(=O)CN(C)C(=O)COc1ncnc2ccccc12
> 40.5	COc1ccc(NS(=O)(=O)c2cccs2)cn1
> 28.1	Cc1cc2nc(C)c3c(n2n1)CCC3
> 44	O=C(CCc1ccccc1)NCCc1nc2ccccc2[nH]1
> 50.9	CC(=O)Nc1cc2nc(C)n(Cc3ccc([N+](=O)[O-])cc3)c2nc1C
12 (≈ 32.4 µM)	N#Cc1ccccc1COC(=O)c1cccc(S(=O)(=O)N2CCCC2)c1
35.4 (≈ 140 µM)	CNc1nc(N)c(C(=O)Nc2cc(C)on2)s1
11.9 (≈ 34.4 µM)	C=CCc1cc(/C=C2/NC(=O)N(CC(=O)OC)C2=O)cc(OC)c1O
< 0.7	CN1C(=O)/C(=C\c2ccccc2OCc2ccccc2)SC1=S
> 53.5	O=C(NCCN1CCOCC1)C(Sc1ccccc1)c1ccccc1 (stereo not given)
> 51.7	O=C(Nc1ccccc1)C1CCCCN1S(=O)(=O)c1ccccc1 (stereo not given)

solubility kinetic [µg/mL]	Compound
7.7 (≈ 19.5 µM)	Cn1c(OCc2cccnc2)nc2c1c(=O)n(Cc1ccc(F)cc1)c(=O)n2C
> 42.6	Cn1ccnc1C(OC(=O)c1ccccc1)C(F)(F)F (stereo not given)
< 0.4	O=[N+]([O-])c1ccc(-c2ccc(S(=O)(=O)N3CCOCC3)cc2)cc1
< 0.7	O=C(COC(=O)c1ccccc1Nc1ccccc1F)c1ccccc1
< 0.4	CCc1cc2cccc(C)c2nc1SCC(=O)NC1CCCC1
2.9 (≈ 9.25 µM)	CC(=O)c1cccc(NC(=O)CCCSc2ccccc2)c1
0.6 (≈ 2.1 µM)	O=C(NC1CCCCC1)c1cc(-c2ccccc2O)on1
4.3 (≈ 12.1 µM)	COc1ccc(S(=O)(=O)NCc2ccccc2)cc1Br
> 53.8	COc1ccc(C(C)(C)C)cc1NC(=O)C1CC(=O)N(C2CCCC2)C1 (stereo not given)
> 44.3	O=C1NCCN/C1=C\C(=O)c1cccc(Br)c1
> 39.8	NC(=O)c1ccc(NCC2CCCO2)c([N+](=O)[O-])c1 (stereo not given)
4.4 (≈ 14.6 µM)	Cc1ccc(CNC(=O)COC(=O)c2cc(C)oc2C)cc1
51.8 (≈ 137 µM)	Cn1c(=O)n(Cc2ccccc2)c(=O)c2c1nc1n2CCN1Cc1ccco1
40.2	Cl.O=[N+]([O-])c1cccc(CNCc2ccccc2)c1
> 43.1	Cc1nn(C)cc1S(=O)(=O)Nc1ccc(F)c(F)c1
45.3 (≈ 134 µM)	O=C(O)c1cccc(S(=O)(=O)Nc2ccc([N+](=O)[O-])cc2O)c1
< 0.5	CC(C)S(=O)(=O)c1csc(NC(=O)Nc2cc(Cl)ccc2Cl)c1Cl
1.7 (≈ 6.27 µM)	O/N=C/c1ccc(-c2ccccc2OC(F)(F)F)o1
> 41.1	Cc1ccc(NC(=O)Cn2c([N+](=O)[O-])cnc2C)cc1
> 48.1	Cn1c(SCC(=O)N2CCCCCC2)nnc1-c1ccco1
5.7 (≈ 15.3 µM)	Cc1cc(C(C)(C)C)cc(C)c1S(=O)(=O)N1CC(=O)Nc2ccccc21

solubility kinetic [µg/mL]	Compound
< 0.3	COc1ccc(-c2csc(N(C)C(=O)c3ccco3)n2)cc1
> 45.8	Cc1csc(NC(=O)C2CC(=O)N(Cc3ccco3)C2)n1 (stereo not given)
1 (≈ 3.11 µM)	O=C(CSc1nc(-c2ccccc2)ns1)N1CCOCC1
13.9 (≈ 42.1 µM)	O=S(=O)(NC1CC2CCC1C2)c1ccc(Br)cc1 (stereo not given)
7.2 (≈ 26.4 µM)	C/C(=C\c1ccccc1)C(=O)Nc1ccc(Cl)cn1
48.6 (≈ 149 µM)	CCc1nc2ccc(C(=O)N3CCN(CC)CC3)cc2nc1CC
35.3 (≈ 127 µM)	Cc1cc(SCc2cccc([N+](=O)[O-])c2)nc(=O)[nH]1
11.3 (≈ 26.5 µM)	Cn1c(N)c(C(=O)COC(=O)COc2cccc(Br)c2)c(=O)n(C)c1=O
> 57.3	CCN(C(=O)Cn1c(Cl)nc2c1c(=O)n(C)c(=O)n2C)C1CCCCC1
10.2 (≈ 20.9 µM)	COc1ccc(CN(C)C(=O)COC(=O)c2cc([N+](=O)[O-])ccc2N2CCCC2)c(OC)c1OC
> 43.6	CCN(CC)CCCNc1nc(C)cc(COC)c1C#N
31.4 (≈ 123 µM)	CCCCc1nc2ccc(S(=O)(=O)O)cc2[nH]1
> 29.9	CC1(C(=O)O)CCC(C(N)=O)C1(C)C (stereo not given)
49.5 (≈ 142 µM)	CCC(=O)c1ccc(OCC(=O)OCC(=O)NCC2CCCO2)cc1 (stereo not given)
> 46.5	CC1CCCC(C)N1C(=O)COC(=O)c1ccc([N+](=O)[O-])o1 (stereo not given)
> 43.7	CCOc1ccc(/C=C/C(=O)N2CCOCC2)cc1OC
> 46.8	Cc1nc(C(=O)NCC(=O)c2ccccc2)c(C(F)(F)F)o1
33.1 (≈ 135 µM)	O=C(NCCCCc1ccccc1)C1CCCC1
2.3 (≈ 10.3 µM)	C=C(c1ccccc1)c1ccc(N(C)C)cc1
28.3 (≈ 86.8 µM)	O=C(CCSCc1ccc(Cl)cc1)NCc1cccs1
< 0.6	Cc1ccc(S(=O)(=O)N2CCc3ccccc3C2)cc1

solubility kinetic [µg/mL]	Compound
3.1 (≈ 10.9 µM)	CCCc1ccc(C(=O)O/N=C(\N)c2ccccn2)cc1
48.7 (≈ 121 µM)	CCOc1ccc(N2C(=O)CC(NCc3ccc(S(N)(=O)=O)cc3)C2=O)cc1 (stereo not given)
39.3 (≈ 146 µM)	CCC(C(=O)Nc1cc(C)cc(C)n1)c1ccccc1 (stereo not given)
> 47.1	CCn1ncc(S(=O)(=O)Nc2cc(Cl)ccc2C)c1C
> 48	Cc1cc(NC(=O)C2CC(=O)N(c3ccccc3Cl)C2)no1 (stereo not given)
43.2 (≈ 127 µM)	NC(=O)c1ccccc1NC(=O)CCn1c(=S)oc2ccccc21
36.7 (≈ 119 µM)	Fc1ccccc1NC(=S)NCCc1cccc(Cl)c1
0.7 (≈ 2.01 µM)	COc1cc(CNc2ncnc3c2[nH]c2ccc(C)cc23)cc(OC)c1
< 0.4	CCOC(=O)c1c(NC(=S)N2CCOCC2)sc(C)c1C
> 48.7	COc1ccc(CNC(=O)N[C@@H](CC(C)C)C(=O)O)cc1OC
< 0.7	O=C(NC1CCSc2ccccc21)c1ccc(C(F)(F)F)cc1 (stereo not given)
> 44.6	CCc1nnc(SC(C)C(=O)Nc2nccs2)n1C (stereo not given)
3.2 (≈ 9.02 µM)	COc1ccc(CNC(=S)Nc2ccc(F)c(Cl)c2)cc1OC
38.9 (≈ 124 µM)	CC(=O)Oc1ccc(C(=O)Nc2ccc3c(c2)OCCO3)cc1
0.6 (≈ 1.93 µM)	S=c1nc(NCc2ccc3c(c2)OCO3)c2ccccc2[nH]1
2 (≈ 7.51 µM)	CC(=O)c1sc(NC(=O)c2cccs2)nc1C
1.9 (≈ 5.42 µM)	COc1ccccc1NS(=O)(=O)c1ccc2oc(SC)nc2c1
> 41.9	CC(C)(C)n1cnnc1Sc1ccc([N+](=O)[O-])cn1
47.7 (≈ 133 µM)	COc1cc2c(cc1OC)CN(Cc1cc(OC)c(O)c(OC)c1)CC2
35.8 (≈ 135 µM)	CSc1ccccc1NC(=O)CN1CCCCC1

Compound	solubility kinetic [µg/mL]
COc1ccc2ccccc2c1CN(C)Cc1ccccc1.O=C(O)C(=O)O	53.1
Br.COC(=O)c1ccc(CN2CCSC2=N)cc1	49.6

From PubChem BioAssay AID1996
